Assay [1] relates to Hepatitis B virus. The assay is described as follows: Antiviral activity against HBV transfected in human HB611 cells. The class given is functional, organism-based.
In assay [2] the test system is Hepatitis B virus. The assay is described as follows: Antiviral activity against HBV transfected in human HB611 cells assessed as reduction of HBV DNA replication incubated for 5 days by q-PCR analysis. In kind it is functional, organism-based. To be noted: HB611, 120 h.
Assay [3] in a line: Inhibition of HBV RNA polymerase. Further details: species or system Hepatitis B virus.
Assay [4] in a line: Cytotoxicity against human HB611 cells assessed as reduction in cell viability incubated for 6 to 9 days by celltiter-glo assay. The class given is functional. The conditions noted are these: time 6-9 day. For orientation: ATP-based viability assays read luminescence as a measure of living cells.
In assay [5] the test system is Hepatitis B virus. The assay is described as follows: Antiviral activity against HBV infected in human HepDES19 cells assessed as inhibition of HBV replication by qPCR analysis. In kind it is functional, organism-based. In general terms: In qPCR the cycle at which signal appears reflects the starting amount.
Assay [6] concerns Hepatitis B virus. Briefly: Antiviral activity against HBV infected in human HepDES19 cells assessed as reduction in HBV replication. In kind it is functional, organism-based.
Assay [7] deals with Hepatitis B virus. The assay is described as follows: Antiviral activity against HBV infected in human HepG2 2.2.15 cells assessed as reduction on HBsAg level incubated for 5 days. To be noted: time 5 day. The class given is functional. More on the design: concentration or dose not given beside the values.
Assay [8] has as its system Hepatitis B virus. The assay is described as follows: Antiviral activity against HBV infected in human HePAD38 cells assessed as reduction in HBV replication by qPCR analysis. The class given is functional, organism-based.
Assay [9] is described as follows: Cytotoxicity against human HepAD38 cells assessed as reduction in cell viability incubated for 4 days by XTT assay. In kind it is functional. To be noted: HePAD38, 96 h, time 4 day. In general terms: Tetrazolium assays rely on reduction of a dye to a coloured formazan, in cell work by metabolically active cells.
For assay [10], the system named is HepG2. Briefly: Cytotoxicity against human HepG2 cells assessed as cell viability incubated for 12 days by WST-1 assay. The class given is functional. To be noted: HepG2, 288 h, time 12 day.
Assay [11] relates to HepG2. Briefly: Cytotoxicity against human HepG2 cells assessed as reduction in cell viability by MTS assay. In kind it is functional.
The subject of assay [12] is HepG2. Briefly: Cytotoxicity against human HepG2 cells assessed as reduction in cell viability in presence of lamivudine by MTS assay. In kind it is functional.
Assay [13] relates to Hepatitis B virus. The assay is described as follows: Antiviral activity against HBV infected in human HepG2-hNTCP cells assessed as reduction in HBV DNA replication by qRT-PCR analysis. The class given is functional, organism-based.
The nature of assay [14]: Cytotoxicity against human HepG2-hNTCP cells assessed as reduction in cell viability incubated for 3 days by celltiter glo assay. In kind it is functional. To be noted: 72 h, time 3 day.
Assay [15] is described as follows: Cytotoxicity against human HB611 cells assessed as reduction in cell viability incubated for 3 days by celltiter glo assay. In kind it is functional. To be noted: HB611, 72 h, time 3 day.
In assay [16] the test system is Hepatitis B virus. Briefly: Antiviral activity against HBV infected in human Hep38.7-TeT cells assessed as inhibition of extracellular HBV DNA by real-time qPCR analysis. In kind it is functional, organism-based.
Assay [17] deals with Hepatitis B virus. Briefly: Antiviral activity against HBV D1 infected in human HepG2.2.15 cells assessed as reduction in HBV DNA production by real-time qPCR analysis. To be noted: D1, HepG2.2.15. The class given is functional, organism-based.
For assay [18], the system named is Hepatitis B virus. Briefly: Antiviral activity against entecavir-resistant HBV infected in human Huh-7 cells assessed as reduction in HBV DNA production by real-time qPCR analysis. In kind it is functional, organism-based.
A further assay relates to Huh-7. The assay is described as follows: Cytotoxicity against human Huh-7 cells assessed as reduction in cell viability by MTT assay. In kind it is functional.
In assay [19] the test system is Hepatitis B virus. Briefly: Antiviral activity against adefovir-resistant HBV infected in human Huh-7 cells assessed as reduction in HBV DNA production by real-time qPCR analysis. The class given is functional, organism-based.
In assay [20] the test system is Hepatitis B virus. Briefly: Antiviral activity against HBV C2 infected in human Huh-7 cells assessed as reduction in HBV DNA production by real-time qPCR analysis. The class given is functional, organism-based. The conditions noted are these: C2, Huh-7.
The test system of assay [21] is Hepatitis B virus. The assay is described as follows: Antiviral activity against HBV infected in human HepG2.2.15.7 cells assessed as reduction in HBV DNA replication by TR-PCR analysis. In kind it is functional, organism-based.

From ChEMBL document CHEMBL5620351, “Advancing beyond reverse transcriptase inhibitors: The new era of hepatitis B polymerase inhibitors” (Eur J Med Chem, 2023) come the findings set out here.

One may read the EC50 as the concentration at which the effect is half-maximal. For orientation: IC50 means the concentration that gives 50% inhibition. The CC50 is the concentration at which the toxic effect on the cells reaches its halfway point.

In turn, `NC(Cc1cc(O)c(O)cc1O)C(=O)O` (stereo not given) yielded an EC50 in the assay with Hepatitis B virus [1] of 16.1 µM. Further, the half-inhibitory concentration (IC50) came to 21 µM in the assay on Hepatitis B virus [2] and 6.6 µM in assay [3]. In assay [4], the CC50 is 66 µM.
`COc1ccc(CNC(=O)C2C(=O)N(O)C(=O)c3ccccc32)cc1` (stereo not given): in the assay with Hepatitis B virus [5], the EC50 was 0.69 µM.
With `COc1ccccc1CON=C(C)c1c(C)cc(=O)n(O)c1O`, the EC50 in the assay with Hepatitis B virus [6] is 0.11 µM.
Regarding `CCCCCCCCCCCC1=C(O)C(=O)C=C(O)C1=O` [EMBELIN], the Activity in the assay on Hepatitis B virus [7] is reported as 62%.
As for `O=c1cc(Nc2cccc(-c3ccc(F)cc3)c2)[nH]c(=O)n1O`, the IC50 in the assay with Hepatitis B virus [8] was found to be 5.5 µM. For the same molecule, the cytotoxic concentration (CC50) in assay [9] was > 100 µM.
With `NC(=O)C(Cc1ccc(O)c(O)c1)OC(=O)/C=C/c1ccc(O)c(O)c1` (stereo not given), the CC50 with HepG2 [10] amounted to 229 µM.
As to `CCN(CC)C(=O)C1C(=O)N(O)C(=O)c2ccccc21` (stereo not given), in the assay with Hepatitis B virus [5], the EC50 was 0.69 µM.
As for `CC(C)c1ccc(O)c(=O)c(O)c1` [BETA-THUJAPLICINOL], the 50% cytotoxic concentration (CC50) worked out at 47 µM in the assay on HepG2 [11] and 48 µM in the assay on HepG2 [12].
With `COc1ccc(CON=C(C)c2c(C)cc(=O)n(O)c2O)cc1`, in the assay with Hepatitis B virus [6], the 50% effective concentration (EC50) came to 0.11 µM.
With `Cc1ccc(C(=O)Nc2ccc(S(=O)(=O)O)c3cc(S(=O)(=O)O)cc(S(=O)(=O)O)c23)cc1NC(=O)c1cccc(NC(=O)Nc2cccc(C(=O)Nc3cc(C(=O)Nc4ccc(S(=O)(=O)O)c5cc(S(=O)(=O)O)cc(S(=O)(=O)O)c45)ccc3C)c2)c1` [SURAMIN], the IC50 in the assay on Hepatitis B virus [13] turned out to be 0.27 µM. Moreover, the 50% cytotoxic concentration (CC50) in assay [14] stood at 200 µM; in assay [15], 168 µM.
Regarding `O=C(NCc1ccc(F)cc1)C1C(=O)N(O)C(=O)c2cc(Cl)ccc21` (stereo not given), in the assay on Hepatitis B virus [5], the EC50 came to 0.69 µM.
As to `O=C(/C=C/c1ccc(O)c(O)c1)O[C@H](Cc1ccc(O)c(O)c1)C(=O)O` [ROSMARINIC ACID], in the assay with Hepatitis B virus [16], the EC50 is 30 µM.
As for `CC(=NOCc1ccc(C)cc1)c1c(C)cc(=O)n(O)c1O`, the 50% effective concentration (EC50) with Hepatitis B virus [6] worked out at 0.11 µM.
On to `N#C[C@]1(CO)/C(=C\F)[C@@H](n2cnc3c(=O)[nH]c(N)nc32)C[C@@H]1O`, for which the IC50 with Hepatitis B virus [17] turned out to be 1.8 µM; in the assay on Hepatitis B virus [18], 77.5 µM; with Hepatitis B virus [19], 14.1 µM; in the assay on Hepatitis B virus [20], 0.7 µM. In the assay on Huh-7, the CC50 stood at 169 µM.
For `O=C(/C=C/c1ccc(O)c(O)c1)OCCc1ccc(O)c(O)c1`, the half-maximal cytotoxic concentration (CC50) in the assay with HepG2 [10] came to 229 µM.
`O=C(/C=C/c1ccc(O)c(O)c1/C=C/c1ccc(O)c(O)c1)O[C@H](Cc1ccc(O)c(O)c1)C(=O)O` [SALVIANOLIC ACID A]: the 50% cytotoxic concentration (CC50) in the assay with HepG2 [10] came to 86 µM.
As to `N=C(N)SCCc1ccc(OCc2ccc([N+](=O)[O-])cc2)cc1`, the concentration for half-maximal inhibition (IC50) with Hepatitis B virus [13] came out at 7.31 µM. Moreover, the CC50 was 37.4 µM in assay [14] and 41.9 µM in assay [15].
`Oc1cc(O)cc(/C=C/c2ccc(O)c(O)c2)c1` [PICEATANNOL]: the EC50 in the assay on Hepatitis B virus [21] turned out to be 96.2 µM.
On to `O=C(Nc1ccc(F)cc1)C1C(=O)N(O)C(=O)c2ccccc21` (stereo not given), for which the EC50 in the assay on Hepatitis B virus [5] is 0.69 µM.
For the molecule `CC(=NOc1ccc(F)cc1)c1c(C)cc(=O)n(O)c1O`, the EC50 in the assay with Hepatitis B virus [6] came to 0.11 µM.
In the case of `C/C(=N\c1ccccc1N)c1c(C)cc(=O)n(O)c1O`, the EC50 in the assay with Hepatitis B virus [6] amounted to 0.11 µM; in the assay with Hepatitis B virus [5], 0.69 µM.
Consider `Cc1ccc(CNC(=O)C2C(=O)N(O)C(=O)c3cc(NC(=O)c4ccccc4)ccc32)cc1` (stereo not given), for which the EC50 in the assay with Hepatitis B virus [5] came out at 0.69 µM.
As for `O=C(/C=C/c1ccc(O)c(O)c1)NCCc1ccc(O)c(O)c1`, in the assay with HepG2 [10], the 50% cytotoxic concentration (CC50) amounted to 229 µM.
For the molecule `CC(=NOCc1ccccc1N)c1c(C)cc(=O)n(O)c1O`, the EC50 with Hepatitis B virus [6] stood at 0.11 µM.
For the molecule `N#C/C=C1/C=C[C@@H](O)C[C@H]1O[C@@H]1O[C@H](CO)[C@@H](O)[C@H](O)[C@H]1O`, the Activity with Hepatitis B virus [7] turned out to be 62%.
As for `O=C(NCc1ccc(F)cc1)C1C(=O)N(O)C(=O)c2ccc(O)nc21` (stereo not given), in the assay on Hepatitis B virus [6], the half-maximal effective concentration (EC50) is 2.4 µM.
